Results published in PubChem BioAssay (NCI).
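Five compound concentrations were applied to cells in 96-well plates for 48 hours; endpoints were derived by simple linear interpolation of the resulting dose-response curve. Abbreviation: GI50, concentration required for 50% inhibition of growth. TGI: total growth inhibition.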

Columns and labels:
Assay in all cases: NCI-60 cell line screen, 48 h
CAKI-1 renal = test system: CAKI-1 renal
UO-31 renal = test system: UO-31 renal
ACHN renal = test system: ACHN renal
OVCAR-4 ovarian = test system: OVCAR-4 ovarian
HOP-62 NSCLC = test system: HOP-62 NSCLC
786-0 renal = test system: 786-0 renal
UACC-257 melanoma = test system: UACC-257 melanoma
SK-MEL-28 melanoma = test system: SK-MEL-28 melanoma
BT-549 breast = test system: BT-549 breast
MCF7 breast = test system: MCF7 breast

| SMILES | TGI (CAKI-1 renal) | TGI (UO-31 renal) | TGI (ACHN renal) | TGI (OVCAR-4 ovarian) | GI50 (HOP-62 NSCLC) | TGI (HOP-62 NSCLC) | TGI (786-0 renal) | TGI (UACC-257 melanoma) | TGI (SK-MEL-28 melanoma) | TGI (BT-549 breast) | TGI (MCF7 breast) | GI50 (UO-31 renal) | GI50 (ACHN renal) | GI50 (OVCAR-4 ovarian) | GI50 (SK-MEL-28 melanoma) | GI50 (BT-549 breast) | GI50 (MCF7 breast) | GI50 (786-0 renal) | GI50 (UACC-257 melanoma) | GI50 (CAKI-1 renal) |
| --- | --- | --- | --- | --- | --- | --- | --- | --- | --- | --- | --- | --- | --- | --- | --- | --- | --- | --- | --- | --- |
| O=c1cccccc1[O-].O=c1cccccc1[O-].O=c1cccccc1[O-].[La+3] | > 100 µM | 65.8 µM | > 100 µM | > 100 µM | 31.4 µM | 78.5 µM | 30.4 µM | 47.9 µM |  |  |  |  |  |  |  |  |  |  |  |  |
| N#Cc1cccc(/C=N/N=C(\N)NO)c1 | > 100 µM | > 100 µM | > 100 µM | > 100 µM |  | > 100 µM | > 100 µM | > 100 µM | > 100 µM |  |  |  |  |  |  |  |  |  |  |  |
| COc1ccc(C2ON(c3cccc(C)n3)CC=C2C)cc1 (configuration not stated) | > 100 µM | > 100 µM | > 100 µM | > 100 µM |  | > 100 µM | > 100 µM | > 100 µM | 71.3 µM |  |  |  |  |  |  |  |  |  |  |  |
| CC(=O)OCC1OC(n2c(-c3ccc(C)cc3)cc(-c3ccccc3)c(C#N)c2=O)C(OC(C)=O)C(OC(C)=O)C1OC(C)=O (configuration not stated) | > 100 µM | > 100 µM | > 100 µM | > 100 µM |  | > 100 µM | > 100 µM | > 100 µM | > 100 µM |  |  |  |  |  |  |  |  |  |  |  |
| CCOC(=O)c1[nH]c(COC(C)=O)c2c1CCCCCCCCCC2 | > 100 µM | > 100 µM |  | > 100 µM |  | > 100 µM | > 100 µM | > 100 µM |  |  |  |  |  |  |  |  |  |  |  |  |
| CCOc1ccc2nc(NC(=O)C(=O)C(c3cnc4ccccc4n3)[N+](=O)[O-])sc2c1 (configuration not stated) | > 100 µM | > 100 µM | > 100 µM | > 100 µM |  | > 100 µM | > 100 µM | > 100 µM |  | > 100 µM | > 100 µM |  |  |  |  |  |  |  |  |  |
| CN(C)c1ccc(/C=c2\sc3nc4ccccc4n3c2=O)cc1 | > 100 µM | > 100 µM | > 100 µM | > 100 µM |  | > 100 µM | > 100 µM | > 100 µM | > 100 µM |  |  |  |  |  |  |  |  |  |  |  |
| O=c1c(-c2ccccc2)coc2cc(OC/C(=N/O)c3ccccc3)ccc12 |  | 76.5 µM | 43.5 µM | 47.2 µM | 18.9 µM | 51.3 µM | 50.4 µM | 9.03 µM | > 100 µM | > 100 µM | 47.1 µM | 18.6 µM | 21.8 µM | 14.9 µM | 28.8 µM | 29.8 µM | 23.3 µM | 25.4 µM | 3.03 µM |  |
| Cc1ccc(Cl)cc1NC(=O)c1sc2nc3c(cc2c1N)C(=O)CCC3 | > 100 µM | > 100 µM | > 100 µM | > 100 µM | > 100 µM | > 100 µM | > 100 µM | > 100 µM | > 100 µM |  | > 100 µM | > 100 µM | 50.4 µM | > 100 µM | > 100 µM |  | 4.67 µM | > 100 µM | 7.3 µM | 3.33 µM |
| CCCSS[C@H]1NC(=O)[C@H]1NC(=O)COc1ccccc1 | 43.6 µM | > 100 µM | 30.2 µM | 31.9 µM |  | > 100 µM | 31.5 µM | 27.8 µM | 30.3 µM |  |  |  |  |  |  |  |  |  |  |  |
| COC(=O)Nc1nc2ccc(Br)cc2[nH]1 |  | > 100 µM | > 100 µM | > 100 µM |  | > 100 µM | > 100 µM | > 100 µM | > 100 µM |  |  |  |  |  |  |  |  |  |  |  |
| Clc1ccc(C(n2cc(Br)cn2)n2cc(Br)cn2)cc1 | 23.4 µM | 20 µM | 27.6 µM | 26.4 µM |  | 34.3 µM | 27.8 µM | 29.3 µM | 32.6 µM |  |  |  |  |  |  |  |  |  |  |  |
| Cn1cc2ccccc2c1-c1nc(F)nc(OCC(=O)[C@H]2CCC3[C@@H]4CCC5=CC(=O)CC[C@]5(C)C4[C@@H](O)C[C@@]32C)n1 (some centres not stated) | 14 µM | 37.8 µM | 32.6 µM | 29.6 µM |  | 42.7 µM | 30.5 µM | 37.3 µM | 31.2 µM |  |  |  |  |  |  |  |  |  |  |  |
| CN1C(=O)C2C(C1=O)C1(O)c3ccccc3C2(N)c2ccccc21 (configuration not stated) | > 100 µM | > 100 µM | > 100 µM | > 100 µM |  | > 100 µM | > 100 µM | > 100 µM | > 100 µM |  |  |  |  |  |  |  |  |  |  |  |
| N#CC1CC2(CCN1C(=O)c1ccccc1)OCCO2 (configuration not stated) | > 100 µM | > 100 µM | > 100 µM | > 100 µM |  | > 100 µM | > 100 µM | > 100 µM |  |  |  |  |  |  |  |  |  |  |  |  |
| NC(N)=NS(=O)(=O)c1ccc(NCCc2c3ccccc3nc3ccccc23)cc1 | > 100 µM | > 100 µM | > 100 µM | 53.8 µM |  | > 100 µM | > 100 µM | > 100 µM | > 100 µM |  |  |  |  |  |  |  |  |  |  |  |
| O=C1C(=Cc2c(O)cc(O)cc2O)C(=O)c2ccccc21 | > 65.5 µM | > 100 µM | > 57.6 µM | > 72.7 µM |  | > 100 µM | > 56.4 µM | > 58.1 µM | > 60.3 µM |  |  |  |  |  |  |  |  |  |  |  |
| CC(=O)C1=C(O)CC2CC3c4[nH]c5ccccc5c4CCN3CC2C1 (configuration not stated) |  | > 100 µM | > 100 µM | > 100 µM |  | > 100 µM | > 100 µM | > 100 µM | > 100 µM |  |  |  |  |  |  |  |  |  |  |  |
| Cc1cc(Cl)ccc1NC(=O)CC1SC(=Nc2ccccc2Cl)NC1=O (configuration not stated) | > 100 µM | > 100 µM | > 100 µM | > 100 µM |  | > 100 µM | > 100 µM | > 100 µM | > 100 µM |  |  |  |  |  |  |  |  |  |  |  |
| NC(N)=NS(=O)(=O)c1ccc(Nc2c3ccccc3nc3c(C(=O)Nc4ccc(S(N)(=O)=O)cc4)cccc23)cc1 | > 100 µM | > 100 µM | > 100 µM | > 100 µM |  | > 100 µM | > 100 µM | > 100 µM | > 100 µM |  |  |  |  |  |  |  |  |  |  |  |
| Cn1cc(C(=O)C[n+]2ccccc2)c2ccccc21 | > 100 µM | > 100 µM | > 100 µM | > 100 µM |  | > 100 µM | > 100 µM | > 100 µM |  |  |  |  |  |  |  |  |  |  |  |  |
| CCN(CC)c1ccc(N=Nc2ccc(-c3nc4ccc[n+](C)c4o3)cc2)cc1 | 26.3 µM | 25.4 µM |  | 25.2 µM |  | 29.9 µM | 23.7 µM | 20.2 µM |  |  |  |  |  |  |  |  |  |  |  |  |
| COc1ccccc1NC(=O)CC(=O)N/N=C/c1ccc(N(CCC#N)S(=O)(=O)c2ccccc2)cc1 | > 100 µM | > 100 µM | > 100 µM | > 100 µM |  | > 100 µM | > 100 µM | > 100 µM | > 100 µM |  |  |  |  |  |  |  |  |  |  |  |
